Data taken from patent US4727080A, “1-substituted derivatives of 6-fluoro-7-(pyrrol-1-yl)-1,4-dihydro-4-oxoquinoline-3-carboxylic acid, their preparation and their application as drugs” (Provesan S.A., priority 1984, dated 1988).
≈ marks a conversion by molar mass, not a printed value.

What was measured:
[1] = test system: Bacillus subtilis ATCC 6633; test: "In vitro" MIC, Bacillus subtilis; type: cell-based; settings: ATCC6633; Bacillus subtilis ATCC 6633; dextrose agar, 37° C., 20 hours; read-out: "In vitro" MIC
Procedure: (§1) Antimicrobial pharmacological activity (G. L. Daquet and Y. A. Chabbect, Techniques en bacteriologie (Techniques in bacteriology), vol. 3, Flammarion Medecine-Sciences, Paris, 1972, and W. B. Hugo and A. D. Rusell, Pharmaceutical Microbiology, Blackwell Scientific Publications, London (1977).
Bacillus subtilis ATCC 6633
(§2) A streak culture of each of the microorganisms is formed in tubes of antibiotics agar no. 1 and incubated for 20 hours at 37° C. A culture loop is then taken and a culture is formed in a tryptone-soya broth and incubated for 20 hours at 37° C. The resulting culture is diluted to 1/4 with Ringer's physiological solution to give a standardized suspension of 10^5 ufc/ml for each organism.
(§3) Starting from a solution of 1000 μg/ml in 0.1N NaOH, each product is diluted successively in dextrose agar (melted beforehand and kept at 50° C.) to give the following concentrations: 64-32-16-8-4-2-1-0.5-0.25-0.125 μg of derivative/ml of medium.
(§4) After this, each concentration of each product is divided up into Petri dishes of 10 cm diameter at a rate of 10 ml of medium per dish and using as many dishes as there are microorganisms to be tested.
(§5) Once the medium has cooled, the dishes are treated with the inoculations at a rate of 0.4 ml of inoculation per dish. They are spread out with a Drigalski loop and the supernatant is collected. The inoculated dishes are incubated at 37° C. for 20 hours.

[2] = test system: Micrococcus flavus ATCC 10240; test: "In vitro" MIC, Micrococcus flavus; type: cell-based; settings: ATCC10240; Micrococcus flavus ATCC 10240; dextrose agar, 37° C., 20 hours; read-out: "In vitro" MIC
Procedure: as §1
Micrococcus flavus ATTC 10240
as §2, §3, §4, §5

Sarcina lutea ATCC 9341 = test: "In vitro" MIC, Sarcina lutea; type: cell-based; settings: Micrococcus luteus, ATCC9341; Sarcina lutea ATCC 9341; dextrose agar, 37° C., 20 hours; read-out: "In vitro" MIC
Procedure: as §1, §2, §3, §4, §5

[3] = test system: Staphylococcus aureus ATCC 5488/23; test: "In vitro" MIC, Staphylococcus aureus ATCC 5488/23; type: cell-based; settings: ATCC5488; Staphylococcus aureus ATCC 5488/23; dextrose agar, 37° C., 20 hours; read-out: "In vitro" MIC
Procedure: as §1
Staphylococcus aureus ATCC 5488/23
as §2, §3, §4, §5

[4] = test system: Staphylococcus aureus ATCC 25178; test: "In vitro" MIC, Staphylococcus aureus ATCC 25178; type: cell-based; settings: ATCC25178; Staphylococcus aureus ATCC 25178; dextrose agar, 37° C., 20 hours; read-out: "In vitro" MIC
Procedure: as §1
Staphylococcus aureus ATCC 25178
as §2, §3, §4, §5

[5] = test system: Streptococcus faecalis ATCC 10541; test: "In vitro" MIC, Streptococcus faecalis; type: cell-based; settings: Enterococcus faecalis, ATCC10541; Streptococcus faecalis ATCC 10541; dextrose agar, 37° C., 20 hours; read-out: "In vitro" MIC
Procedure: as §1
Streptococcus faecalis ATCC 10541
as §2, §3, §4, §5

[6] = test system: Enterobacter aerogenes ATCC 15038; test: "In vitro" MIC, Enterobacter aerogenes; type: cell-based; settings: Klebsiella aerogenes, ATCC15038; Enterobacter aerogenes ATCC 15038; dextrose agar, 37° C., 20 hours; read-out: "In vitro" MIC
Procedure: as §1
Enterobacter aerogenes ATCC 15038
as §2, §3, §4, §5

[7] = test system: Enterobacter cloacae CHSP-20; test: "In vitro" MIC, Enterobacter cloacae; type: cell-based; settings: CHSP20; Enterobacter cloacae CHSP-20; dextrose agar, 37° C., 20 hours; read-out: "In vitro" MIC
Procedure: as §1
Enterobacter cloacae CHSP-20
as §2, §3, §4, §5

[8] = test system: Escherichia coli ATCC 10536; test: "In vitro" MIC, Escherichia coli ATCC 10536; type: cell-based; settings: ATCC10536; Escherichia coli ATCC 10536; dextrose agar, 37° C., 20 hours; read-out: "In vitro" MIC
Procedure: as §1
Escherichia coli ATCC 10536
as §2, §3, §4, §5

Escherichia coli R-1513 = test: "In vitro" MIC, Escherichia coli R-1513; type: cell-based; settings: R1513; Escherichia coli R-1513; dextrose agar, 37° C., 20 hours; read-out: "In vitro" MIC
Procedure: as §1, §2, §3, §4, §5

[9] = test system: Klebsiella pneumoniae ATCC 10031; test: "In vitro" MIC, Klebsiella pneumoniae; type: cell-based; settings: ATCC10031; Klebsiella pneumoniae ATCC 10031; dextrose agar, 37° C., 20 hours; read-out: "In vitro" MIC
Procedure: as §1
Klebsiella pneumoniae ATCC 10031
as §2, §3, §4, §5

[10] = test system: Citrobacter freundii ATCC 11606; test: "In vitro" MIC, Citrobacter freundii; type: cell-based; settings: ATCC11606; Citrobacter freundii ATCC 11606; dextrose agar, 37° C., 20 hours; read-out: "In vitro" MIC
Procedure: as §1
Citrobacter freundii ATCC 11606
as §2, §3, §4, §5

[11] = test system: Proteus mirabilis ATCC 4675; test: "In vitro" MIC, Proteus mirabilis; type: cell-based; settings: ATCC4675; Proteus mirabilis ATCC 4675; dextrose agar, 37° C., 20 hours; read-out: "In vitro" MIC
Procedure: as §1
Proteus mirabilis ATCC 4675
as §2, §3, §4, §5

Proteus morganii CHSP-16 = test: "In vitro" MIC, Proteus morganii; type: cell-based; settings: Morganella morganii, CHSP16; Proteus morganii CHSP-16; dextrose agar, 37° C., 20 hours; read-out: "In vitro" MIC
Procedure: as §1, §2, §3, §4, §5

[12] = test system: Pseudomonas aeruginosa 25115; test: "In vitro" MIC, Pseudomonas aeruginosa 25115; type: cell-based; settings: Pseudomonas aeruginosa 25115; dextrose agar, 37° C., 20 hours; read-out: "In vitro" MIC
Procedure: as §1
Pseudomonas aeruginosa 25115
as §2, §3, §4, §5

[13] = test system: Pseudomonas aeruginosa ADSA 47; test: "In vitro" MIC, Pseudomonas aeruginosa ADSA 47; type: cell-based; settings: ADSA47; Pseudomonas aeruginosa ADSA 47; dextrose agar, 37° C., 20 hours; read-out: "In vitro" MIC
Procedure: as §1
Pseudomonas aeruginosa ADSA 47
as §2, §3, §4, §5

[14] = test system: Salmonella typhimurium AMES 98; test: "In vitro" MIC, Salmonella typhimurium AMES 98; type: cell-based; settings: Salmonella enterica; Salmonella typhimurium AMES 98; dextrose agar, 37° C., 20 hours; read-out: "In vitro" MIC
Procedure: as §1
Salmonella typhimurium AMES 98
as §2, §3, §4, §5

[15] = test system: Salmonella typhimurium AMES 100; test: "In vitro" MIC, Salmonella typhimurium AMES 100; type: cell-based; settings: Salmonella enterica; Salmonella typhimurium AMES 100; dextrose agar, 37° C., 20 hours; read-out: "In vitro" MIC
Procedure: as §1
Salmonella typhimurium AMES 100
as §2, §3, §4, §5

[16] = test system: Serratia marcescens ATTC 13880; test: "In vitro" MIC, Serratia marcescens; type: cell-based; settings: ATTC13880; Serratia marcescens ATTC 13880; dextrose agar, 37° C., 20 hours; read-out: "In vitro" MIC
Procedure: as §1
Serratia marcescens ATTC 13880
as §2, §3, §4, §5

Shigella flexnerii = test: "In vitro" MIC, Shigella flexnerii; type: cell-based; settings: 20 h, read-out: "In vitro" MIC
Procedure: as §1, §2, §3, §4, §5

Acute toxicity to mice = settings: mouse, in vivo, ip, suspension in 5% gum arabic, mortality over 7 days
Procedure: The experimental animals used to determine this toxicity were albino mice of the C.F.L.P. strain and of both sexes, weighing between 19 and 25 grams. After an 18-hour fasting period with water "ad libitum", the derivatives forming the subject of the present invention are administered intraperitoneally as a suspension in 5% gum arabic. The volume of suspension administered was 0.4 ml/20 grams (20 ml/kg) in all cases, the concentration of the suspension being changed according to the dose administered.
One hour after administration of the derivatives, the animals are given a standard Panlab rat-mouse food. The mortality was observed over a period of 7 days. Differences in mortality between the sexes were not observed with any of the products.

[17] = test system: Enterobacteriaceae (Pseudomonas aeruginosa); test: "In vitro" antimicrobial activity compared with nalidixic acid, Enterobacteriaceae (Pseudomonas aeruginosa); type: cell-based
Procedure: as §1, §2, §3, §4, §5

Gram-positive cocci = test: "In vitro" antimicrobial activity compared with nalidixic acid, Gram-positive cocci; type: cell-based
Procedure: as §1, §2, §3, §4, §5

SMILES | MIC [1] [µg/mL] | MIC [2] [µg/mL] | MIC (Sarcina lutea ATCC 9341) [µg/mL] | MIC [3] [µg/mL] | MIC [4] [µg/mL] | MIC [5] [µg/mL] | MIC [6] [µg/mL] | MIC [7] [µg/mL] | MIC [8] [µg/mL] | MIC (Escherichia coli R-1513) [µg/mL] | MIC [9] [µg/mL] | MIC [10] [µg/mL] | MIC [11] [µg/mL] | MIC (Proteus morganii CHSP-16) [µg/mL] | MIC [12] [µg/mL] | MIC [13] [µg/mL] | MIC [14] [µg/mL] | MIC [15] [µg/mL] | MIC [16] [µg/mL] | MIC (Shigella flexnerii) [µg/mL] | other results
O=C(O)c1cn(CCF)c2cc(-n3cccc3)c(F)cc2c1=O [Example 6, 6-fluoro-7-(pyrrol-1-yl)-1-fluoroethyl-4-oxo-1,4-dihydroquinoline-3-carboxylate acid] | ≤ 0.031 | 1 (≈ 3.14 µM) | 2 (≈ 6.28 µM) | 0.062 (≈ 0.195 µM) | 0.062 (≈ 0.195 µM) | 0.5 (≈ 1.57 µM) | 1 (≈ 3.14 µM) | 0.5 (≈ 1.57 µM) | ≤ 0.031 | 0.5 (≈ 1.57 µM) | 0.062 (≈ 0.195 µM) | 1 (≈ 3.14 µM) | 1 (≈ 3.14 µM) | 0.5 (≈ 1.57 µM) | 4 (≈ 12.6 µM) | 16 (≈ 50.3 µM) | ≤ 0.031 | 0.25 (≈ 0.785 µM) | 1 (≈ 3.14 µM) | 1 (≈ 3.14 µM) | LD50 at 168 h (Acute toxicity to mice): > 1600 mg/kg; "in vitro" activity compared with nalidixic acid [17]: greater "in vitro" activity than nalidixic acid; "in vitro" activity compared with nalidixic acid (Gram-positive cocci): greater "in vitro" activity than nalidixic acid
C=Cn1cc(C(=O)O)c(=O)c2cc(F)c(-n3cccc3)cc21 [Example 3, 6-fluoro-7-(pyrrol-1-yl)-1-vinyl-4-oxo-1,4-dihydroquinoline-3-carboxylic acid] | ≤ 0.062 | 4 (≈ 13.4 µM) | 8 (≈ 26.8 µM) | 0.5 (≈ 1.68 µM) | 0.5 (≈ 1.68 µM) | 16 (≈ 53.6 µM) | 1 (≈ 3.35 µM) | 1 (≈ 3.35 µM) | 0.125 (≈ 0.419 µM) | 1 (≈ 3.35 µM) | 0.5 (≈ 1.68 µM) | 1 (≈ 3.35 µM) | 2 (≈ 6.71 µM) | 2 (≈ 6.71 µM) | 4 (≈ 13.4 µM) | 8 (≈ 26.8 µM) | ≤ 0.062 | 0.5 (≈ 1.68 µM) | 1 (≈ 3.35 µM) | 1 (≈ 3.35 µM) | LD50 at 168 h (Acute toxicity to mice): > 1600 mg/kg; "in vitro" activity compared with nalidixic acid [17]: greater "in vitro" activity than nalidixic acid; "in vitro" activity compared with nalidixic acid (Gram-positive cocci): greater "in vitro" activity than nalidixic acid
